# In patent US20020026053A1, “Novel 3-(substituted) -2- indolinones compounds and use thereof as inhibitors of protein kinase activity” (priority 1997, published 2002):
# Molecular target: T1, Met receptor (EGFR/Met chimeric cells, EMR) (Homo sapiens, UniProt P08581)
# T1 construct: expressed in transfected cells; the other entry of the earlier key: EGFR (P00533, Epidermal growth factor receptor)
# Assay: Met Autophosphorylation Assay
# Assay type: biochemical
# In short: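 Met phosphorylation was measured by capture ELISA. Lysates (90 μg/100 μl, HNTG plus 1 mM PMSF) from transiently transfected EGFR/Met chimera (EMR) cells were bound for 60 min at room temperature to wells holding rabbit anti-Met (C-28) on goat anti-rabbit coat. Phosphotyrosine was the read-out.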
# T1 sequence (P08581 with tags, fused parts or gaps): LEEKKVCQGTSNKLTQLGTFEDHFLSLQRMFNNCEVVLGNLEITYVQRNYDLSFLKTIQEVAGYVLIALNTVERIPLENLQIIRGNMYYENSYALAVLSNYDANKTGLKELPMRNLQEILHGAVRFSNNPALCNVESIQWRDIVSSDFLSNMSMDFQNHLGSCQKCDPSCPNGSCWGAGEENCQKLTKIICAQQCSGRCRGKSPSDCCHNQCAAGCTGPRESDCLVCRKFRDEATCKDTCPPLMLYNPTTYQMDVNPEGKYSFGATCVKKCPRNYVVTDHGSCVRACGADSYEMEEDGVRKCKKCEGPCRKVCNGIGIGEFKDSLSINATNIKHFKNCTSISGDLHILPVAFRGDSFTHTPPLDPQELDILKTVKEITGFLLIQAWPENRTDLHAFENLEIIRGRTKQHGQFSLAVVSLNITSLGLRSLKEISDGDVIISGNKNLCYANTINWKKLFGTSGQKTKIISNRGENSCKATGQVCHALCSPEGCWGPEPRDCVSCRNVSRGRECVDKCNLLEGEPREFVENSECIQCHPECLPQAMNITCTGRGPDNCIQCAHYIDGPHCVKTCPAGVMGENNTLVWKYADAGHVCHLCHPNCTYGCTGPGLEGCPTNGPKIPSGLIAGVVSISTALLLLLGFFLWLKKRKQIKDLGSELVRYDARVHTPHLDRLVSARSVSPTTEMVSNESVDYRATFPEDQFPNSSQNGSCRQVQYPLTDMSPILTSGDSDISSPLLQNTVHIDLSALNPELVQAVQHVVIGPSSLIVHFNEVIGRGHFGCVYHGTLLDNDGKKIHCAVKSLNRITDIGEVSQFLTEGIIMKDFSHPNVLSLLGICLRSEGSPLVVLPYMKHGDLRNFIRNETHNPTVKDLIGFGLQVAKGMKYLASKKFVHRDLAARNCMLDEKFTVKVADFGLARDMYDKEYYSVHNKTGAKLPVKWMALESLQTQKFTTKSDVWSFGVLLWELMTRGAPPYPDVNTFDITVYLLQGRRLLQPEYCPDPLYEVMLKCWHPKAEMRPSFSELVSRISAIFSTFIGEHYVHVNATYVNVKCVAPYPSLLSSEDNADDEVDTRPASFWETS
row,SMILES,Met Kinase % Inhibition (P.130) [%]
1,O=C1Nc2ccc(S(=O)(=O)Nc3ccc(C(F)(F)F)cc3)cc2C1=Cc1cccc(F)c1O [10734/E08],89.1
2,O=C1Nc2ccc(S(=O)(=O)Nc3ccc(C(F)(F)F)cc3)cc2C1=Cc1ccc(O)c(Br)c1 [10734/E09],96.2
3,CC(C)(C)c1ccc(C=C2C(=O)Nc3ccc(S(=O)(=O)Nc4ccc(C(F)(F)F)cc4)cc32)cc1 [10734/E10],27.9
4,O=C1Nc2ccc(S(=O)(=O)Nc3ccc(C(F)(F)F)cc3)cc2C1=Cc1ccc(Br)s1 [10734/E11],67.1
5,CCOc1cccc(C=C2C(=O)Nc3ccc(S(=O)(=O)N4CCOCC4)cc32)c1O [10734/F02],55.0
6,O=C1Nc2ccc(S(=O)(=O)N3CCOCC3)cc2C1=Cc1cc(Cl)cc(Cl)c1O [10734/F03],86.8
7,O=C1Nc2ccc(S(=O)(=O)N3CCOCC3)cc2C1=Cc1cc(Cl)ccc1O [10734/F04],76.5
8,CCN(CC)c1ccc(C=C2C(=O)Nc3ccc(S(=O)(=O)N4CCOCC4)cc32)c(O)c1 [10734/F05],73.8
9,O=C1Nc2ccc(S(=O)(=O)N3CCOCC3)cc2C1=Cc1ccc([N+](=O)[O-])cc1 [10734/F06],64.2
10,O=C1Nc2ccc(S(=O)(=O)N3CCOCC3)cc2C1=Cc1cc(Br)cc(Br)c1O [10734/F07],95.7
11,O=C1Nc2ccc(S(=O)(=O)N3CCOCC3)cc2C1=Cc1cccc(F)c1O [10734/F08],66.3
12,O=C1Nc2ccc(S(=O)(=O)N3CCOCC3)cc2C1=Cc1ccc(O)c(Br)c1 [10734/F09],93.9
13,CC(C)(C)c1ccc(C=C2C(=O)Nc3ccc(S(=O)(=O)N4CCOCC4)cc32)cc1 [10734/F10],44.8
14,O=C1Nc2ccc(S(=O)(=O)N3CCOCC3)cc2C1=Cc1ccc(Br)s1 [10734/F11],47.3
15,CCOc1cccc(C=C2C(=O)Nc3ccc(CCCl)cc32)c1O [10734/G02],63.6
16,O=C1Nc2ccc(CCCl)cc2C1=Cc1cc(Cl)cc(Cl)c1O [10734/G03],93.4
17,O=C1Nc2ccc(CCCl)cc2C1=Cc1cc(Cl)ccc1O [10734/G04],72.1
18,CCN(CC)c1ccc(C=C2C(=O)Nc3ccc(CCCl)cc32)c(O)c1 [10734/G05],57.7
19,O=C1Nc2ccc(CCCl)cc2C1=Cc1ccc([N+](=O)[O-])cc1 [10734/G06],43.1
20,O=C1Nc2ccc(CCCl)cc2C1=Cc1cc(Br)cc(Br)c1O [10734/G07],96.6
21,O=C1Nc2ccc(CCCl)cc2C1=Cc1cccc(F)c1O [10734/G08],82.2
22,O=C1Nc2ccc(CCCl)cc2C1=Cc1ccc(O)c(Br)c1 [10734/G09],84.7
23,CC(C)(C)c1ccc(C=C2C(=O)Nc3ccc(CCCl)cc32)cc1 [10734/G10],19.3
24,O=C1Nc2ccc(CCCl)cc2C1=Cc1ccc(Br)s1 [10734/G11],20.2
25,CCOc1cccc(C=C2C(=O)Nc3c(Br)cc(Br)c(C)c32)c1O [10734/H02],48.3
26,Cc1c(Br)cc(Br)c2c1C(=Cc1cc(Cl)cc(Cl)c1O)C(=O)N2 [10734/H03],90.3
27,Cc1c(Br)cc(Br)c2c1C(=Cc1cc(Cl)ccc1O)C(=O)N2 [10734/H04],64.2
